Results: ChEMBL document CHEMBL4229566, “Discovery of ( S)-3-(3-(3,5-Dimethyl-1 H-pyrazol-1-yl)phenyl)-4-(( R)-3-(2-(5,6,7,8-tetrahydro-1,8-naphthyridin-2-yl)ethyl)pyrrolidin-1-yl)butanoic Acid, a Nonpeptidic αvβ6 Integrin Inhibitor for the Inhaled Treatment of Idiopathic Pulmonary Fibrosis” (J Med Chem, 2018)

How the values were obtained:
[1] = Protein binding in human blood at 1 ug/ml after 4 hrs by LC-MS/MS analysis; type: ADME, tissue-based; settings: at 1 µg/mL, read-out: PB (converted)
[2] = biological target: T1, Voltage-gated inwardly rectifying potassium channel KCNH2 (Homo sapiens, UniProt Q12809)
T1 sequence (Q12809 whole entry): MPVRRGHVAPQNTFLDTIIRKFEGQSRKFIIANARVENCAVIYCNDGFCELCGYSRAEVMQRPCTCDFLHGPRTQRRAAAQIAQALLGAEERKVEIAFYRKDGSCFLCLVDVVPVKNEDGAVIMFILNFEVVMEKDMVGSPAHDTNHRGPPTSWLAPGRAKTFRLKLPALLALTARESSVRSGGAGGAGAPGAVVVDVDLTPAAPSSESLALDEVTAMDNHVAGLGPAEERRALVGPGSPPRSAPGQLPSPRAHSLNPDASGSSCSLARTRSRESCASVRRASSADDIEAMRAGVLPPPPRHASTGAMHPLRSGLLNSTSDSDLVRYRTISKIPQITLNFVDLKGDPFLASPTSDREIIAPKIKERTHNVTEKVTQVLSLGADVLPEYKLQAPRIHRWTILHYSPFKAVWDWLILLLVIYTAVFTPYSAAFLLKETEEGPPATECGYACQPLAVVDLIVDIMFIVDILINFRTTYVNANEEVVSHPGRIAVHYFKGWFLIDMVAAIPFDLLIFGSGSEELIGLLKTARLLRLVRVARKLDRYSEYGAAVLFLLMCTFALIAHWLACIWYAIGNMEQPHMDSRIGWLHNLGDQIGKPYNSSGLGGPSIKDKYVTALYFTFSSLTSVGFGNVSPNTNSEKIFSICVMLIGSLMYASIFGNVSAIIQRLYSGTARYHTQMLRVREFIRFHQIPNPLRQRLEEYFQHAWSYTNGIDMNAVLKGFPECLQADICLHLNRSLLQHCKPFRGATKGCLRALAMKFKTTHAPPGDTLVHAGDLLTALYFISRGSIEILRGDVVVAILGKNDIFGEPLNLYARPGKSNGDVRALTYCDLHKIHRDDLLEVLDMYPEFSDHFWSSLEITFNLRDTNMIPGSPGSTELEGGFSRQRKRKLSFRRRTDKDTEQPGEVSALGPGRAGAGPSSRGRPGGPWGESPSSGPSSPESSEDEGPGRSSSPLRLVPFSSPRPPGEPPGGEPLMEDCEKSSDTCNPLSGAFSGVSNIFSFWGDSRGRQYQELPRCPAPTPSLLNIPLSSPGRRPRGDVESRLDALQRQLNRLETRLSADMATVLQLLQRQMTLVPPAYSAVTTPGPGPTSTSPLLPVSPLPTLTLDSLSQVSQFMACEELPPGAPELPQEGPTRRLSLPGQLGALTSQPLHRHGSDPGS
Description: Inhibition of human ERG expressed in HEK293 cells by Q-patch assay

[3] = biological target: T1, Voltage-gated inwardly rectifying potassium channel KCNH2; remark: listed apart in the source
Description: Inhibition of human ERG expressed in HEK293 cells by Barracuda automated patch clamp assay

physchem = settings: buffer, pH 7.4, logD
[4] = Stability in pH 5 to 7 solution under refrigerated conditions; type: physicochemical; settings: buffer
[5] = Stability in solid state form at elevated temperatures and relative humidity conditions; type: physicochemical
[6] = Stability in saline at pH 4 at 50 degC; type: physicochemical; settings: buffer

logD (physchem)	SMILES	IC50 [2]	IC50 [3]	also measured
	Cc1ccnn1-c1cccc([C@H](CC(=O)O)CN2CC[C@@H](CCc3ccc4c(n3)NCCC4)C2)c1			fraction unbound at 4 h, 1 ug/ml [1]: 0.1
2.53	Cc1cc(-c2cccc([C@H](CC(=O)O)CN3CC[C@@H](CCc4ccc5c(n4)NCCC5)C3)c2)[nH]n1	25.1 µM	> 50.1 µM	
2.56	O=C(O)C[C@H](CN1CC[C@@H](CCc2ccc3c(n2)NCCC3)C1)c1cccc(C2CCOC2)c1 (stereo in doubt; 28xI1)	12.6 µM	39.8 µM	
	Cc1cc(C)n(-c2cccc([C@H](CC(=O)O)CN3CC[C@@H](CCc4ccc5c(n4)NCCC5)C3)c2)n1.Cl [GSK-3008348]			Stability [4]: 6 weeks; Stability [5]: 4 weeks; Stability [6]: <= 6 weeks
2.27	O=C(O)C[C@H](CN1CC[C@@H](CCc2ccc3c(n2)NCCC3)C1)c1cccc(N2CCOCC2)c1			
3.15	O=C(O)C[C@H](CN1CC[C@@H](CCc2ccc3c(n2)NCCC3)C1)c1cccc(Br)c1		1.26 µM	
